Measured values as given in patent US20230159511A1, “TETRAHYDROISOQUINOLINE COMPOUNDS AS NRF2 ACTIVATORS” (C4X Discovery Limited, priority 2020, published 2023).

Target: T1, human KEAP1 (N-term, residues 321-609) (Homo sapiens, UniProt Q14145)
T1 construct: human KEAP1 (N-term, residues 321-609)
Test: KEAP1 Kelch Fluorescence Polarization (FP) Assay
Format: binding
Conditions: inhibition of Kelch domain-NRF2 interaction; 2 nM FITC-labelled NRF2 peptide, 25 nM KEAP1, 1 h room temperature; compounds below 10 nM cannot be differentiated
Protocol: KEAP1 Kelch Fluorescence Polarization (FP) Assay Method
Inhibition of the Kelch domain-NRF2 interaction was determined using a fluorescence polarization-based competition assay in a black 384-well microplate. Compounds were tested at a starting concentration of 10 μM serially diluted 1:3 to generate a 12-point dose response curve on the Biomek FX robot. Each well contained 2 nM FITC-labelled NRF2 peptide (FITC-LDEETGEFL-NH2) and 25 nM human KEAP1 (N-term, residues 321-609) enzyme in a final volume of 20 μL of assay buffer (50 mM Tris-HCl pH 8.0, 100 mM NaCl, 5 mM MgCl2, 0.005% Tween-20, 0.005% BSA, 0.5% DMSO) in the presence of varying concentrations of test compound. Unlabelled peptide (LDEETGEFL-NH2) at 50 μM (negative control) and 0.5% DMSO (positive control) was used to determine the assay window.
After 1 h at room temperature, fluorescence polarization (excitation 470 nm/emission 530 nm) was measured using an Envision plate reader. IC50 values were determined by fitting the data to a four parameter logistic fit using XLfit or XE Runner within ActivityBase. The assay limit is such that compounds below 10 nM cannot be differentiated.

T1 sequence (Q14145 321-609): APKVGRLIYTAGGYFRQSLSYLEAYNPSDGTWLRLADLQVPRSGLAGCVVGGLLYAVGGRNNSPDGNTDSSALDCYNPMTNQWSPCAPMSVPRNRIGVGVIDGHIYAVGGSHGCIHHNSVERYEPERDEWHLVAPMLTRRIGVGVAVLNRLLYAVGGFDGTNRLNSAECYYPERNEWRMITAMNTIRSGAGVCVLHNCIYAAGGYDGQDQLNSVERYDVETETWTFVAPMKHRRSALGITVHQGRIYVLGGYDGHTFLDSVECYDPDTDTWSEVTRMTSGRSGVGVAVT

| Compound | IC50 [nM] |
| --- | --- |
| CNC(=O)[C@H]1CCCC[C@H]1C(=O)N1CCc2cccc(OCc3cnccn3)c2[C@H]1CN1C(=O)c2ccccc2C1=O [Example 27, (1S,2R)-2-((S)-1-((1,3-dioxoisoindolin-2-yl)methyl)-8-(pyrazin-2-ylmethoxy)-1,2,3,4-tetrahydroisoquinoline-2-carbonyl)-N-methylcyclohexane-1-carboxamide] | 565 |
| O=C(NCC(F)F)[C@H]1CCCC[C@H]1C(=O)N1CCc2cccc(O[C@H]3CCN(C(=O)c4cncs4)C3)c2[C@H]1CN1C(=O)c2ccccc2C1=O [Example 31, (1S,2R)-N-(2,2-difluoroethyl)-2-((S)-1-((1,3-dioxoisoindolin-2-yl)methyl)-8-(((S)-1-(thiazole-5-carbonyl)pyrrolidin-3-yl)oxy)-1,2,3,4-tetrahydroisoquinoline-2-carbonyl)cyclohexane-1-carboxamide] | 539 |
| O=C(NCC(F)(F)F)[C@H]1CCCC[C@H]1C(=O)N1CCc2cccc(O[C@H]3CCN(C(=O)c4cncs4)C3)c2[C@H]1CN1C(=O)c2ccccc2C1=O [Example 32, (1S,2R)-2-((S)-1-((1,3-dioxoisoindolin-2-yl)methyl)-8-(((S)-1-(thiazole-5-carbonyl)pyrrolidin-3-yl)oxy)-1,2,3,4-tetrahydroisoquinoline-2-carbonyl)-N-(2,2,2-trifluoroethyl)cyclohexane-1-carboxamide] | 2100 |
| N#CCNC(=O)[C@H]1CCCC[C@H]1C(=O)N1CCc2cccc(O[C@H]3CCN(C(=O)c4cncs4)C3)c2[C@H]1CN1C(=O)c2ccccc2C1=O [Example 33, (1S,2R)-N-(cyanomethyl)-2-((S)-1-((1,3-dioxoisoindolin-2-yl)methyl)-8-(((S)-1-(thiazole-5-carbonyl)pyrrolidin-3-yl)oxy)-1,2,3,4-tetrahydroisoquinoline-2-carbonyl)cyclohexane-1-carboxamide] | 1510 |
| CNC(=O)[C@H]1CCCC[C@H]1C(=O)N1CCc2cccc(O[C@H]3CCN(C(=O)c4cncs4)C3)c2[C@H]1CNC(=O)C1CC1 [Example 38, (1S,2R)-2-((S)-1-(cyclopropanecarboxamidomethyl)-8-(((S)-1-(thiazole-5-carbonyl)pyrrolidin-3-yl)oxy)-1,2,3,4-tetrahydroisoquinoline-2-carbonyl)-N-methylcyclohexane-1-carboxamide] | 8200 |
| CNC(=O)[C@H]1CCCC[C@H]1C(=O)N1CCc2cccc(OCc3ccn[nH]3)c2[C@H]1CN1C(=O)c2ccccc2C1=O [Example 39, (1S,2R)-2-((S)-8-((1H-pyrazol-5-yl)methoxy)-1-((1,3-dioxoisoindolin-2-yl)methyl)-1,2,3,4-tetrahydroisoquinoline-2-carbonyl)-N-methylcyclo hexane-1-carboxamide] | 3010 |
| CNC(=O)CCCC(=O)N1CCc2cccc(O[C@H]3CCN(C(=O)c4cncs4)C3)c2[C@H]1CN1C(=O)c2ccccc2C1=O [Example 40, 5-((S)-1-((1,3-dioxoisoindolin-2-yl)methyl)-8-(((S)-1-(thiazole-5-carbonyl)pyrrolidin-3-yl)oxy)-3,4-dihydroisoquinolin-2(1H)-yl)-N-methyl-5-oxopentanamide] | 523 |
| CNC(=O)CCC(=O)N1CCc2cccc(O[C@H]3CCN(C(=O)c4cncs4)C3)c2[C@H]1CN1C(=O)c2ccccc2C1=O [Example 41, 4-((S)-1-((1,3-dioxoisoindolin-2-yl)methyl)-8-(((S)-1-(thiazole-5-carbonyl)pyrrolidin-3-yl)oxy)-3,4-dihydroisoquinolin-2(1H)-yl)-N-methyl-4-oxobutanamide] | 788 |
| CNC(=O)[C@H]1CCCC[C@H]1C(=O)N1CCc2cccc(O[C@H]3CCN(C(=O)c4cncs4)C3)c2[C@H]1CNC(C)=O [Example 44] | 1170 |
| CNC(=O)[C@H]1CCCC[C@H]1C(=O)N1CCc2cccc(O[C@H]3CCN(C(=O)c4cncs4)C3)c2[C@H]1CN1CCOC1=O [Example 45, (1S,2R)-N-methyl-2-((S)-1-((2-oxooxazolidin-3-yl)methyl)-8-(((S)-1-(thiazole-5-carbonyl)pyrrolidin-3-yl)oxy)-1,2,3,4-tetrahydroisoquinoline-2-carbonyl)cyclohexane-1-carboxamide] | 310 |

These reach a lower IC50. Values come first.

| IC50 [nM] | Compound |
| --- | --- |
| 215 | COCCNC(=O)[C@H]1CCCC[C@H]1C(=O)N1CCc2cccc(O[C@H]3CCN(C(=O)c4cncs4)C3)c2[C@H]1CN1C(=O)c2ccccc2C1=O [Example 30, (1S,2R)-2-((S)-1-((1,3-dioxoisoindolin-2-yl)methyl)-8-(((S)-1-(thiazole-5-carbonyl)pyrrolidin-3-yl)oxy)-1,2,3,4-tetrahydroisoquinoline-2-carbonyl)-N-(2-methoxyethyl)cyclo-hexane-1-carboxamide] |
| 186 | O=C(NCCCO)[C@H]1CCCC[C@H]1C(=O)N1CCc2cccc(O[C@H]3CCN(C(=O)c4cncs4)C3)c2[C@H]1CN1C(=O)c2ccccc2C1=O [Example 43, (1S,2R)-2-((S)-1-((1,3-dioxoisoindolin-2-yl)methyl)-8-(((S)-1-(thiazole-5-carbonyl)pyrrolidin-3-yl)oxy)-1,2,3,4-tetrahydroisoquinoline-2-carbonyl)-N-(3-hydroxypropyl)cyclohexane-1-carboxamide] |
| 185 | O=C(NCCO)[C@H]1CCCC[C@H]1C(=O)N1CCc2cccc(O[C@H]3CCN(C(=O)c4cncs4)C3)c2[C@H]1CN1C(=O)c2ccccc2C1=O [Example 35, (1S,2R)-2-((S)-1-((1,3-dioxoisoindolin-2-yl)methyl)-8-(((S)-1-(thiazole-5-carbonyl)pyrrolidin-3-yl)oxy)-1,2,3,4-tetrahydroisoquinoline-2-carbonyl)-N-(2-hydroxyethyl)cyclohexane-1-carboxamide] |
| 166 | CCCNC(=O)[C@H]1CCCC[C@H]1C(=O)N1CCc2cccc(O[C@H]3CCN(C(=O)c4cncs4)C3)c2[C@H]1CN1C(=O)c2ccccc2C1=O [Example 29, (1S,2R)-2-((S)-1-((1,3-dioxoisoindolin-2-yl)methyl)-8-(((S)-1-(thiazole-5-carbonyl)pyrrolidin-3-yl)oxy)-1,2,3,4-tetrahydroisoquinoline-2-carbonyl)-N-propylcyclohexane-1-carboxamide] |
| 126 | CNC(=O)N[C@@H](C)C(=O)N1CCc2cccc(O[C@H]3CCN(C(=O)c4cncs4)C3)c2[C@H]1CN1C(=O)c2ccccc2C1=O [Example 36, 1-((S)-1-((S)-1-((1,3-dioxoisoindolin-2-yl)methyl)-8-(((S)-1-(thiazole-5-carbonyl)pyrrolidin-3-yl)oxy)-3,4-dihydroisoquinolin-2(1H)-yl)-1-oxopropan-2-yl)-3-methylurea] |
| 44 | CNC(=O)[C@H]1CCCC[C@H]1C(=O)N1CCc2c(Cl)ccc(O[C@H]3CCN(C(C)=O)C3)c2[C@H]1CN1C(=O)c2ccccc2C1=O [Example 37, (1S,2R)-2-((S)-8-(((S)-1-acetylpyrrolidin-3-yl)oxy)-5-chloro-1-((1,3-dioxoisoindolin-2-yl)methyl)-1,2,3,4-tetrahydroisoquinoline-2-carbonyl)-N-methylcyclohexane-1-carboxamide] |
| 43 | CNC(=O)N1CCCC[C@H]1C(=O)N1CCc2cccc(O[C@H]3CCN(C(=O)c4cncs4)C3)c2[C@H]1CN1C(=O)c2ccccc2C1=O [Example 28, (S)-2-((S)-1-((1,3-dioxoisoindolin-2-yl)methyl)-8-(((S)-1-(thiazole-5-carbonyl)pyrrolidin-3-yl)oxy)-1,2,3,4-tetrahydroisoquinoline-2-carbonyl)-N-methylpiperidine-1-carboxamide] |
